Data taken from PubChem BioAssay AID2060500 (Molecular Pharmacology Branch, DTP, NCI, 2025).
Where “and” joins values, the source holds several entries; their conditions need not be identical. Equal values may be shown once.

System: 596521-263-R-J1-PDC complex spheroids, viability % of control
Assay: Anticancer human tumor 596521-263-R-J1-PDC patient-derived soft tissue sarcoma cell line growth inhibition [GQUAD]
Conditions: for viability, T/C: stronger effect = lower value
Description: DNA G-quadruplex Stabilizer Agents in Combinations in Complex Spheroids
A high-throughput screen of multi-cell type tumor spheroids was designed to identify active combinations of DNA G-quadruplex stabilizer agents and targeted small molecules. Complex spheroids include a stromal component modeled by human endothelial cells (HUVEC) and fibroblasts modeled by human mesenchymal stem cells (MSCs). The concentration ranges selected for each drug and investigational agent were based upon clinically achievable concentrations if the clinical Cmax of the agent was known.
Compounds. The drugs and investigational agents: pidnarulex (CX-5461; NSC782164), APTO-253 (NSC789042), BRACO-19 (NSC847499), peposertib (NSC802822), ceralasertib (NSC780249), elimusertib (NSC800525), camonsertib (NSC841442), AZD-1390 (NSC803789), olaparib (NSC753686), talazoparib (NSC767125), ART-558 (NSC835418), sotorasib (NSC818433), MRTX-1133 (NSC836407), SN-38 (NSC673596), topotecan (NSC609699), etoposide (NSC141540), doxorubicin (NSC123127), gemcitabine (NSC613327), 5-fluorouracil (NSC19893), paclitaxel (NSC125973), vemurafenib (NSC761431), panobinostat (NSC761190), R-306465 (JNJ-16241199; NSC773264), adavosertib (NSC754352), TP-3654 (NSC805149), carboplatin (NSC241240), KSQ-4279 (NSC840948), and staurosporine (NSC755774) were obtained from the National Cancer Institute (NCI) Developmental Therapeutics Program Chemical Repository (34). The FDA-approved anticancer drug set is available from the NCI Developmental Therapeutics Program. […] The stock solutions were prepared in dimethyl sulfoxide (DMSO, Sigma-Aldrich, St. Louis, MO, cat. D2650) at 800-fold the tested concentration and stored at -70 degrees C prior to their use. All drugs and investigational agents were tested over a range starting from a high concentration at or near the clinical Cmax and decreasing in half-log increments. If the clinical Cmax for an agent had not been determined, the highest concentration tested was 10 microM.
2.3 Cell Culture. All cells were maintained in an incubator at 37 degrees C and 5% CO2 with 95% humidity. The PDC lines were cultured according to standard operating procedures established by the NCI PDMR. All PDCs were thawed and cultured in Matrigel-coated flasks prepared with a working solution of 1X Ham's F-12 nutrient mix, without supplementation (Invitrogen, cat. 11765054), 100 U/mL penicillin-streptomycin (Invitrogen, cat. 15140122), and 2.5% Matrigel (Corning Inc., cat. 354248) for the first three passages. The 857933-349-R-J2-PDC line was cultured in 6C/Colon 1B media, which includes advanced DMEM/F-12 (Thermo Fisher Scientific, cat. 12634028), 10 mM HEPES (Thermo Fisher Scientific, cat. 15630080), 1X GlutaMAX supplement (Thermo Fisher Scientific, cat. 35050061), 0.1 mg/mL primocin (InvivoGen, cat. ant-pm-2), 10% defined fetal bovine serum, heat inactivated (HyClone Laboratories Inc., cat. SH30070.03HI), 50% L-WRN conditioned media (ATCC, cat. CRL-3276), 1.25 mM N-Acetyl-L-cysteine (Sigma-Aldrich, cat. A9165), 10 mM nicotinamide (Sigma-Aldrich, cat. N0636), 1X B-27 supplement (Thermo Fisher Scientific, cat. 17504044), 1X N-2 supplement (Thermo Fisher Scientific, cat. 17502048), 10 microM Y-27632 dihydrochloride (Tocris Bioscience, cat. 1254), and 50 ng/mL human EGF recombinant protein (Thermo Fisher Scientific, cat. PHG0311). The 485176-168-R4-J1-PDC line was cultured in Panc media, which includes all 6C/Colon 1B media components plus 100 ng/mL human FGF-10 (Thermo Fisher Scientific, cat. 100-26), 500 nM SB-431542 (Selleckchem, cat. S1067), and gastrin (Tocris, cat. 3006).
[…]
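Also: spheroids exposed to drugs for 7 days before viability reading.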

Compound CC1COCCN1c1cc(C2(S(C)(=N)=O)CC2)nc(-c2ccnc3[nH]ccc23)n1 (stereo unspecified) + CN(C)c1ccc(Nc2c3ccc(NC(=O)CCN4CCCC4)cc3nc3cc(NC(=O)CCN4CCCC4)ccc23)cc1 has an IC50 (curve of first compound, second compound 0.0316 µM) greater than 10 µM, an IC50 (curve of first compound, second compound 0.1 µM) of 9.59 µM and an IC50 (curve of first compound, second compound 0.316 µM) greater than 10 µM. The IC50 (curve of first compound, second compound 1 µM) was greater than 10 µM, the IC50 (curve of first compound, second compound 3.16 µM) was greater than 10 µM and the IC50 (curve of first compound, second compound 10 µM) was 4.38 µM. The viability, T/C (second compound 0.0316 µM, first compound 0.0316 µM) was 93.1%, the viability, T/C (second compound 0.0316 µM, first compound 0.1 µM) was 97.1% and the viability, T/C (second compound 0.0316 µM, first compound 0.316 µM) was 86.9%. The viability, T/C (second compound 0.0316 µM, first compound 1 µM) was 77.9%, the viability, T/C (second compound 0.0316 µM, first compound 3.16 µM) was 62.9% and the viability, T/C (second compound 0.0316 µM, first compound 10 µM) was 52.3%. The viability, T/C (second compound 0.1 µM, first compound 0.0316 µM) was 97.5%, the viability, T/C (second compound 0.1 µM, first compound 0.1 µM) was 97.7% and the viability, T/C (second compound 0.1 µM, first compound 0.316 µM) was 95.1%. For the same compound, the viability, T/C (second compound 0.1 µM, first compound 1 µM) was 71.5%, the viability, T/C (second compound 0.1 µM, first compound 3.16 µM) was 64.8% and the viability, T/C (second compound 0.1 µM, first compound 10 µM) was 48%. It also gave a viability, T/C (second compound 0.316 µM, first compound 0.0316 µM) of 96.6%, a viability, T/C (second compound 0.316 µM, first compound 0.1 µM) of 90.8% and a viability, T/C (second compound 0.316 µM, first compound 0.316 µM) of 87.3%. The viability, T/C (second compound 0.316 µM, first compound 1 µM) was 85.1%, the viability, T/C (second compound 0.316 µM, first compound 3.16 µM) was 54.2% and the viability, T/C (second compound 0.316 µM, first compound 10 µM) was 51.2%. The viability, T/C (second compound 1 µM, first compound 0.0316 µM) was 90.4%, the viability, T/C (second compound 1 µM, first compound 0.1 µM) was 103% and the viability, T/C (second compound 1 µM, first compound 0.316 µM) was 94.1%. The viability, T/C (second compound 1 µM, first compound 1 µM) was 76.4%, the viability, T/C (second compound 1 µM, first compound 3.16 µM) was 64.3% and the viability, T/C (second compound 1 µM, first compound 10 µM) was 57.3%. It also gave a viability, T/C (second compound 3.16 µM, first compound 0.0316 µM) of 94.5%, a viability, T/C (second compound 3.16 µM, first compound 0.1 µM) of 83.1% and a viability, T/C (second compound 3.16 µM, first compound 0.316 µM) of 78.2%. It also gave a viability, T/C (second compound 3.16 µM, first compound 1 µM) of 80%, a viability, T/C (second compound 3.16 µM, first compound 3.16 µM) of 61.4% and a viability, T/C (second compound 3.16 µM, first compound 10 µM) of 50%. The viability, T/C (second compound 10 µM, first compound 0.0316 µM) was 66.8%, the viability, T/C (second compound 10 µM, first compound 0.1 µM) was 67.1% and the viability, T/C (second compound 10 µM, first compound 0.316 µM) was 65.6%. It also gave a viability, T/C (second compound 10 µM, first compound 1 µM) of 52.8%, a viability, T/C (second compound 10 µM, first compound 3.16 µM) of 53.8% and a viability, T/C (second compound 10 µM, first compound 10 µM) of 44.9%.
With Cc1[nH]c2ccc(F)cc2c1-c1nc2c3cccnc3c3ncccc3c2[nH]1 the viability, T/C (compound 0.0316 µM) was 102% [middle of 12 runs], the viability, T/C (compound 0.1 µM) was 102% [middle of 12 runs] and the viability, T/C (compound 0.316 µM) was 101% [middle of 12 runs]. The viability, T/C (compound 1 µM) was 101% [middle of 12 runs], the viability, T/C (compound 3.16 µM) was 93.6% [middle of 12 runs] and the viability, T/C (compound 10 µM) was 85.7% [middle of 12 runs]. For the same compound, the IC50 (compound alone, run of 04/16/2024) was greater than 10 µM and the IC50 (compound alone, run of 04/22/2024) was greater than 10 µM.
In the case of COc1cc(C2c3cc4c(cc3C(OC3OC5COC(C)OC5C(O)C3O)C3COC(=O)C23)OCO4)cc(OC)c1O (stereo unspecified), the viability, T/C (compound 0.0316 µM) is reported as 107% and 103% (2×), the viability, T/C (compound 0.1 µM) is reported as 87% and 88.9% and 88.6% and the viability, T/C (compound 0.316 µM) is reported as 87.5% and 92% and 89.4%. For the same compound, the viability, T/C (compound 1 µM) was 60.7% and 62.7% and 57.5%, the viability, T/C (compound 3.16 µM) was 58.4% and 54.6% and 68.8% and the viability, T/C (compound 10 µM) was 43.3% and 45.5% and 49.7%. For the same compound, the IC50 (curve of compound) was 5.48 µM and 4.38 µM and > 10 µM.
In the case of CC(C)n1c(=O)n(C)c2cnc3cc(F)c(-c4ccc(OCCCN5CCCCC5)nc4)cc3c21, the viability, T/C (compound 0.0316 µM) is reported as 95.5% and 105% and 103%, the viability, T/C (compound 0.1 µM) is reported as 92.9% and 102% and 101% and the viability, T/C (compound 0.316 µM) is reported as 82.4% and 94.7% and 101%. For the same compound, the viability, T/C (compound 1 µM) was 91.1% and 106% and 92%, the viability, T/C (compound 3.16 µM) was 81.2% and 87.7% and 86.1% and the viability, T/C (compound 10 µM) was 61.1% and 71.2% and 64.3%. For the same compound, the IC50 (curve of compound) was greater than 10 µM.
O=C(c1cc(Cc2n[nH]c(=O)c3ccccc23)ccc1F)N1CCN(C(=O)C2CC2)CC1 was tested, and the viability, T/C (compound 0.0316 µM) was 102% and 96.8% and 103%, the viability, T/C (compound 0.1 µM) was 95.1% and 97.1% and 87.4% and the viability, T/C (compound 0.316 µM) was 87.9% and 88.9% and 100%. For the same compound, the viability, T/C (compound 1 µM) was 89.7% and 89.3% and 95.3%, the viability, T/C (compound 3.16 µM) was 92.5% and 79.6% and 86.6% and the viability, T/C (compound 10 µM) was 68.4% and 67.2% and 66.9%. For the same compound, the IC50 (curve of compound) was greater than 10 µM.
With Cc1cccc(N(C)C(=O)C2C(O)CCN2c2nc(C)cc(C(F)(F)F)c2C#N)c1 (stereo unspecified) the viability, T/C (compound 0.0316 µM) was 113% and 94.7% and 106%, the viability, T/C (compound 0.1 µM) was 103% and 98.2% and 94.6% and the viability, T/C (compound 0.316 µM) was 95.1% and 106% and 98.1%. The viability, T/C (compound 1 µM) was 101% and 98.4% and 112%, the viability, T/C (compound 3.16 µM) was 89.7% and 108% and 114% and the viability, T/C (compound 10 µM) was 91.4% and 96.3% and 101%. The IC50 (curve of compound) was greater than 10 µM.
With O=C(NO)c1cnc(N2CCN(S(=O)(=O)c3ccc4ccccc4c3)CC2)nc1 the viability, T/C (compound 0.0316 µM) was 39.6% and 75% and 74.9%, the viability, T/C (compound 0.1 µM) was 25.7% and 56.3% and 57.3% and the viability, T/C (compound 0.316 µM) was 26.8% and 8.85% and 14%. The IC50 (curve of compound) was < 0.0316 µM and 0.117 µM and 0.121 µM.
O=c1[nH]cc(F)c(=O)[nH]1 was tested, and the viability, T/C (compound 0.0316 µM) was 95.6% and 102% and 106%, the viability, T/C (compound 0.1 µM) was 105% and 100% and 94.9% and the viability, T/C (compound 0.316 µM) was 105% (2×) and 107%. For the same compound, the viability, T/C (compound 1 µM) was 98.4% and 114% and 99.3%, the viability, T/C (compound 3.16 µM) was 94.5% and 97.5% and 97.7% and the viability, T/C (compound 10 µM) was 97.2% and 97.8% and 93.8%. The IC50 (curve of compound) was greater than 10 µM.
In the case of Nc1ccn(C2OC(CO)C(O)C2(F)F)c(=O)n1 (stereo unspecified), the viability, T/C (compound 0.0316 µM) is reported as 53.5% and 48% and 59.9%, the viability, T/C (compound 0.1 µM) is reported as 35.8% and 49.4% and 43.2% and the viability, T/C (compound 0.316 µM) is reported as 45% and 45.2% and 42.6%. The viability, T/C (compound 1 µM) was 42.5% and 40.8% and 52%, the viability, T/C (compound 3.16 µM) was 42.5% and 38.6% and 49.9% and the viability, T/C (compound 10 µM) was 33.4% and 33.3% and 40.1%. The IC50 (curve of compound) was < 0.0316 µM and 0.0354 µM and 0.168 µM.
